Data: patent publication US7608622B2, “Imidazo[4,5-b]pyrazinone inhibitors of protein kinases” (Janssen Pharmaceutica NV, priority 2004, dated 2009)
pIC50: −log10 of the molar value.

target: T1, Aurora-2 (Homo sapiens, UniProt O14965); experiment: Aurora-2 Enzymatic Assay (ELISA-based); format: biochemical; conditions: phosphorylated Aurora-2 (residues 125-391), Histone H3 Ser-10 phosphorylation, averages of three independent measurements; read-out: Aurora-2 IC50 Enzyme
T1 construct: autophosphorylation of Aurora-2 (residues 125-391)
T1 sequence (O14965 125-391): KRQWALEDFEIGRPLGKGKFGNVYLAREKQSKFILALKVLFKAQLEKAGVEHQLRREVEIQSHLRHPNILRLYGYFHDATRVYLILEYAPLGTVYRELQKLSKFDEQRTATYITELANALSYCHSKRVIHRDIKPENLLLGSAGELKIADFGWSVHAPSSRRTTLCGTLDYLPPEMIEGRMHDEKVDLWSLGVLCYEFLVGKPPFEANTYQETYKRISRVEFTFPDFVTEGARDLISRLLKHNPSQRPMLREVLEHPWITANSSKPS
Method: In vitro assays were run to measure potency of Aurora-2 kinase inhibition by selected compounds of Formula I.
Aurora-2 Enzymatic Assay. An ELISA-based enzymatic assay was used to determine the compound potency for Aurora-2. In this assay, phosphorylated Aurora-2 (Pi-Aurora-2) catalyzes the ATP-dependent phosphorylation of Ser-10 of Histone H3. Pi-Aurora-2 was produced by autophosphorylation of Aurora-2 (residues 125-391) by 1 mM ATP in the presence of 10 mM MgCl2. The assay buffer used was 100 mM HEPES, pH 7.5, 1 mM DTT, 0.01% (v/v) Tween-20. Compounds were diluted in assay buffer containing 4% DMSO just prior to the assay. • Procedure. High-binding 96-well ELISA plates (Costar 9018) were coated overnight at 4° C. with 10 μg/ml human Histone H3 (Upstate) in PBS (100 μl/well). The following day, the plates were emptied and blocked with 1% BSA in PBS (150 μl/well) for 1 h at 37° C. At the end of the incubation, plates were washed 3 times with 0.01% Tween-20 in PBS (300 μl/well). 50 μl of compound were dispensed to each well followed by addition of 20 μl 10 mM MgCl2 and 20 μl 50 μM ATP (Sigma). The reaction was initiated by addition of 10 μl 30 nM Pi-Aurora-2. […] The reaction was quenched with 9 μl 50 mM EDTA and the plates were washed 5 times with 0.01% Tween-20 in PBS (300 μl/well). The phospho-histone H3 (Ser10) 6G3 monoclonal antibody (Cell Signaling) was then diluted 2,000-fold with 1% BSA in PBS, and was added to the plates (100 μl/well). Following 1 h incubation at 37° C., the plates were washed as described above. The HRP-conjugated secondary antibody (goat anti-mouse Ig(H+ L)-HRP human absorbed, Southern Biotechnology Associates, Inc.) was diluted 20,000-fold with 1% BSA in PBS and was added to the plates (100 μl/well). The plates were incubated for 1 h at 37° C. and then washed 5 times with 0.01% Tween-20 in PBS (300 μl/well). 100 μl/well TMB, SureBlue Reserve (KPL) were added. After ca. 5-6 min, each well received 100 μl 1 M HCl and the OD450 was measured with a SpectraMax Plus microplate reader (Molecular Devices). Under these conditions, absorbance values for positive and negative controls were ca. 0.1 and 1.7, respectively, and were used to define the 100% and 0% inhibition of the Aurora-2 reaction. The IC50 values reported (Table 1) are the averages of three independent measurements.

SMILES	pIC50
C[C@@H](c1ccccc1)n1c(=O)[nH]c2ncc(-c3cccc(CO)c3)nc21 [Compound 7, 6-(3-Hydroxymethylphenyl)-1-((S)-(−)-1-phenylethyl)-1,3-dihydro-imidazo[4,5-b]pyrazin-2-one]	6.00 to 6.30
COc1ccc(-c2cnc3[nH]c(=O)n(Cc4ccccc4)c3n2)cn1 [Compound 11, 1-Benzyl-6-(6-methoxypyridin-3-yl)-1,3-dihydroimidazo[4,5-b]pyrazin-2-one]	< 6.00
COc1ccc(-c2cnc3[nH]c(=O)n(Cc4ccccc4)c3n2)cc1CO [Compound 24, 1-Benzyl-6-(3-hydroxymethyl-4-methoxyphenyl)-1,3-dihydro-imidazo[4,5-b]pyrazin-2-one]	< 6.00
C[C@@H](c1ccccc1)n1c(=O)[nH]c2ncc(-c3ccc4[nH]ccc4c3)nc21 [Compound 4, 6-(1H-Indol-5-yl)-1-((S)-(−)-1-phenylethyl)-1,3-dihydroimidazo[4,5-b]pyrazin-2-one]	< 6.00
COc1cccc(-c2cnc3[nH]c(=O)n(Cc4ccccc4)c3n2)c1 [Compound 17, 1-Benzyl-6-(3-methoxyphenyl)-1,3-dihydroimidazo[4,5-b]pyrazin-2-one]	< 6.00
COc1cc(-c2cnc3[nH]c(=O)n(Cc4cccnc4)c3n2)cc(OC)c1OC [Compound 20, 1-Pyridin-3-yl methyl-6-(3,4,5-trimethoxyphenyl)-1,3-dihydroimidazo-[4,5-b]pyrazin-2-one]	> 6.30
COc1cc(-c2cnc3[nH]c(=O)n([C@@H](C)c4ccccc4)c3n2)cc(OC)c1OC [Compound 1, 1-((S)-(−)-1-Phenylethyl)-6-(3,4,5-trimethoxyphenyl)-1,3-dihydroimidazo[4,5-b]pyrazin-2-one]	> 6.30
COc1cc(-c2cnc3[nH]c(=O)n(Cc4ccc(Cl)cc4)c3n2)cc(OC)c1OC [Compound 28, 1-(4-Chlorobenzyl)-6-(3,4,5-trimethoxyphenyl)-1,3-dihydro-imidazo[4,5-b]pyrazin-2-one]	6.00 to 6.30
COc1cc(-c2cnc3[nH]c(=O)n(Cc4cccc(Cl)c4)c3n2)cc(OC)c1OC [Compound 29, 1-(3-Chlorobenzyl)-6-(3,4,5-trimethoxyphenyl)-1,3-dihydro-imidazo[4,5-b]pyrazin-2-one]	> 6.30
CC(=O)c1cccc(-c2cnc3[nH]c(=O)n(Cc4ccccc4)c3n2)c1 [Compound 13, 6-(3-Acetylphenyl)-1-benzyl-1,3-dihydroimidazo[4,5-b]pyrazin-2-one]	< 6.00
COc1cc(-c2cnc3[nH]c(=O)n(Cc4ccc(N)cc4)c3n2)cc(OC)c1OC [Compound 38, 1-(4-Aminobenzyl)-6-(3,4,5-trimethoxyphenyl)-1,3-dihydroimidazo[4,5-b]pyrazin-2-one]	> 6.30
O=c1[nH]c2ncc(-c3ccsc3)nc2n1Cc1ccccc1 [Compound 15, 1-Benzyl-6-thiophen-3-yl-1,3-dihydroimidazo[4,5-b]pyrazin-2-one]	< 6.00
COc1cc(-c2cnc3[nH]c(=O)n(Cc4ccccn4)c3n2)cc(OC)c1OC [Compound 19, 1-Pyridin-2-ylmethyl-6-(3,4,5-trimethoxyphenyl)-1,3-dihydroimidazo[4,5-b]pyrazin-2-one]	6.00 to 6.30
COc1cc(-c2cnc3[nH]c(=O)n(Cc4ccc5c(c4)OCO5)c3n2)cc(OC)c1OC [Compound 34, 1-Benzo[1,3]dioxol-5-ylmethyl-6-(3,4,5-trimethoxyphenyl)-1,3-dihydroimidazo[4,5-b]pyrazin-2-one]	6.00 to 6.30
O=c1[nH]c2ncc(-c3cccnc3)nc2n1Cc1ccccc1 [Compound 9, 1-Benzyl-6-pyridin-3-yl-1,3-dihydroimidazo[4,5-b]pyrazin-2-one]	< 6.00
COc1ccc(-c2cnc3[nH]c(=O)n(Cc4ccccc4)c3n2)cc1C=O [Compound 22, 5-(3-Benzyl-2-oxo-2,3-dihydro-1H-imidazo[4,5-b]pyrazin-5-yl)-2-methoxybenzaldehyde]	< 6.00

SMILES	pIC50
COc1cc(-c2cnc3[nH]c(=O)n(Cc4cccc5ccccc45)c3n2)cc(OC)c1OC [Compound 33, 1-Naphthalen-1-ylmethyl-6-(3,4,5-trimethoxyphenyl)-1,3-dihydro-imidazo[4,5-b]pyrazin-2-one]	< 6.00
COc1ccc(-c2cnc3[nH]c(=O)n(Cc4ccccc4)c3n2)cc1OC [Compound 10, 1-Benzyl-6-(3,4-dimethoxyphenyl)-1,3-dihydroimidazo[4,5-b]pyrazin-2-one]	6.00 to 6.30
COc1cc(-c2cnc3[nH]c(=O)n([C@H](C)c4ccccc4)c3n2)cc(OC)c1OC [Compound 2, 1-((R)-(+)-1-Phenylethyl)-6-(3,4,5-trimethoxyphenyl)-1,3-dihydro-imidazo[4,5-b]pyrazin-2-one]	< 6.00
Cc1noc(C)c1-c1cnc2[nH]c(=O)n([C@@H](C)c3ccccc3)c2n1 [Compound 5, 6-(3,5-Dimethylisoxazol-4-yl)-1-((S)-(−)-1-phenylethyl)-1,3-dihydro-imidazo[4,5-b]pyrazin-2-one]	< 6.00
COc1cc(-c2cnc3[nH]c(=O)n(Cc4cccc(N)c4)c3n2)cc(OC)c1OC [Compound 39, 1-(3-Aminobenzyl)-6-(3,4,5-trimethoxyphenyl)-1,3-dihydro-imidazo[4,5-b]pyrazin-2-one]	6.00 to 6.30
COc1cc(-c2cnc3[nH]c(=O)n(Cc4cccc(C)c4)c3n2)cc(OC)c1OC [Compound 30, 1-(3-Methylbenzyl)-6-(3,4,5-trimethoxyphenyl)-1,3-dihydro-imidazo[4,5-b]pyrazin-2-one]	6.00 to 6.30
COc1cc(-c2cnc3[nH]c(=O)n(Cc4cccc([N+](=O)[O-])c4)c3n2)cc(OC)c1OC [Compound 27, 1-(3-Nitrobenzyl)-6-(3,4,5-trimethoxyphenyl)-1,3-dihydroimidazo[4,5-b]pyrazin-2-one]	< 6.00
COc1cc(-c2cnc3[nH]c(=O)n(Cc4ccccc4)c3n2)cc(OC)c1OC [Compound 3, 1-Benzyl-6-(3-4,5-trimethoxyphenyl)-1,3-dihydroimidazo[4,5-b]pyrazin-2-one]	> 6.30
O=C(O)c1cc(-c2cnc3[nH]c(=O)n(Cc4ccccc4)c3n2)ccc1O [Compound 25, 5-(3-Benzyl-2-oxo-2,3-dihydro-1H-imidazo[4,5-b]pyrazin-5-yl)-2-hydroxybenzoic acid]	6.00 to 6.30
COc1cc(-c2cnc3[nH]c(=O)n(Cc4cccc(F)c4)c3n2)cc(OC)c1OC [Compound 31, 1-(3-Fluorobenzyl)-6-(3,4,5-trimethoxyphenyl)-10,3-dihydro-imidazo[4,5-b]pyrazin-2-one]	> 6.30
COc1cc(-c2cnc3[nH]c(=O)n(Cc4cccs4)c3n2)cc(OC)c1OC [Compound 36, 1-Thiophen-2-ylmethyl-6-(3,4,5-trimethoxyphenyl)-1,3-dihydro-imidazo[4,5-b]pyrazin-2-one]	> 6.30
COc1cc(-c2cnc3[nH]c(=O)n(Cc4ccccc4Cl)c3n2)cc(OC)c1OC [Compound 37, 1-(2-Chlorobenzyl)-6-(3,4,5-trimethoxyphenyl)-1,3-dihydro-imidazo[4,5-b]pyrazin-2-one]	> 6.30
O=c1[nH]c2ncc(-c3cccs3)nc2n1Cc1ccccc1 [Compound 16, 1-Benzyl-6-thiophen-2-yl-1,3-dihydroimidazo[4,5-b]pyrazin-2-one]	< 6.00
COc1cc(-c2cnc3[nH]c(=O)n(C4CCc5ccccc54)c3n2)cc(OC)c1OC (centres unmarked) [Compound 35, 1-Indan-1-yl-6-(3,4,5-trimethoxyphenyl)-1,3-dihydroimidazo[4,5-b]pyrazin-2-one]	> 6.30
COCc1cccc(-c2cnc3[nH]c(=O)n(Cc4ccccc4)c3n2)c1 [Compound 12, 1-Benzyl-6-(3-methoxymethylphenyl)-1,3-dihydroimidazo[4,5-b]pyrazin-2-one]	< 6.00
COc1cc(OC)cc(-c2cnc3[nH]c(=O)n(Cc4ccccc4)c3n2)c1 [Compound 21, 1-Benzyl-6-(3,5-dimethoxyphenyl)-1,3-dihydro-imidazo[4,5-b]pyrazin-2-one]	< 6.00
